Assay results from ChEMBL document CHEMBL1157625, “Design, synthesis and preliminary activity assay of 1,2,3,4-tetrahydroisoquinoline-3-carboxylic acid derivatives as novel Histone deacetylases (HDACs) inhibitors” (Bioorg Med Chem, 2010).

Assays:
[1] = molecular target: T1, Histone deacetylase 8 (Homo sapiens, UniProt Q9BY41)
T1 sequence (Q9BY41 whole entry): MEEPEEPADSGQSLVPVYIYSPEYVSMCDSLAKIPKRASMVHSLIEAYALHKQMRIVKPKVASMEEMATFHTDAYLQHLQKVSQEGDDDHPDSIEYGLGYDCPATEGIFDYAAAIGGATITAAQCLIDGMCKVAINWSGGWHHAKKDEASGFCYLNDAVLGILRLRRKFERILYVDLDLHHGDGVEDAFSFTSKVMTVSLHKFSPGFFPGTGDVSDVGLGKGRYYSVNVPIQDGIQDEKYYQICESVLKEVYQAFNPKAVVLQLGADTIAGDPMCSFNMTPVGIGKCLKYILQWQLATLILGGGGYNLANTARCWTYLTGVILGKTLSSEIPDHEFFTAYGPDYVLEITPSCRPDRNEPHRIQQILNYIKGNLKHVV
Description: Inhibition of HDAC8 expressed in Escherichia coli assessed as Boc-Lys (acetyl)-AMC substrate hydrolysis by fluorimetric assay

[2] = test system: HCT-116; assay: Antiproliferative activity against human HCT116 cells after 48 hrs by MTT assay; format: functional, cell-based; details: HCT-116, 48 h
[3] = test system: SK-OV-3; assay: Antiproliferative activity against human SKOV3 cells after 48 hrs by MTT assay; format: functional, cell-based; details: SK-OV-3, 48 h
[4] = test system: HL-60; assay: Antiproliferative activity against human HL60 cells after 48 hrs by MTT assay; format: functional, cell-based; details: HL-60, 48 h

| SMILES | IC50 [1] [µM] | other results |
| --- | --- | --- |
| CC(C)(C)OC(=O)N1Cc2cc(OCC(=O)NO)ccc2C[C@H]1C(=O)Nc1ccccc1 | 1.29 | – |
| CC(C)(C)OC(=O)N1Cc2cc(OCC(=O)NO)ccc2C[C@H]1C(=O)NCc1ccccc1 | 3.41 | – |
| CC(C)(C)OC(=O)N1Cc2cc(OCC(=O)NO)ccc2C[C@H]1C(=O)NCCc1ccccc1 | 2.67 | – |
| CCCCCCNC(=O)[C@@H]1Cc2ccc(OCC(=O)NO)cc2CN1C(=O)OC(C)(C)C | 4.42 | – |
| Cc1ccc(NC(=O)[C@@H]2Cc3ccc(OCC(=O)NO)cc3CN2C(=O)OC(C)(C)C)cc1 | 1.65 | – |
| CCCCCNC(=O)[C@@H]1Cc2ccc(OCC(=O)NO)cc2CN1C(=O)OC(C)(C)C | 3.02 | – |
| CC(C)(C)OC(=O)N1Cc2cc(OCC(=O)NO)ccc2C[C@H]1C(=O)Nc1ccc(F)c(Cl)c1 | 1.55 | – |
| CC(C)(C)OC(=O)N1Cc2cc(OCC(=O)NO)ccc2C[C@H]1C(=O)Nc1cccc2ccccc12 | 4.25 | – |
| O=C(COc1ccc2c(c1)CN1C(=O)N(c3ccc(-c4ccccc4)cc3)C(=O)[C@@H]1C2)NO | > 50 | – |
| CCCCCCNC(=O)[C@@H]1Cc2ccc(OCC(=O)NO)cc2CN1 | 5.77 | – |
| CC(C)(C)OC(=O)N1Cc2cc(OCC(=O)NO)ccc2C[C@H]1C(=O)Nc1cccc(Cl)c1 | 1.17 | IC50 [2]: 490 µM; IC50 [3]: 680 µM; IC50 [4]: 960 µM |
| Cc1ccc(NC(=O)[C@@H]2Cc3ccc(OCC(=O)NO)cc3CN2C(=O)OC(C)(C)C)c(C)c1 | 3.78 | – |
| CC(C)(C)OC(=O)N1Cc2cc(OCC(=O)NO)ccc2C[C@H]1C(=O)Nc1ccc(F)cc1 | 2.56 | – |
| COc1ccc(NC(=O)[C@@H]2Cc3ccc(OCC(=O)NO)cc3CN2C(=O)OC(C)(C)C)cc1 | 1 | IC50 [2]: 48 µM; IC50 [3]: 420 µM; IC50 [4]: > 2120 µM |
| O=C(COc1ccc2c(c1)CN(C(=O)OCc1ccccc1)[C@H](C(=O)NCCc1ccccc1)C2)NO | 0.58 | IC50 [2]: 370 µM; IC50 [3]: > 2000 µM; IC50 [4]: > 2000 µM |
| Cc1cccc(NC(=O)[C@@H]2Cc3ccc(OCC(=O)NO)cc3CN2C(=O)OC(C)(C)C)c1 | 1.77 | – |
| CC(C)(C)OC(=O)N1Cc2cc(OCC(=O)NO)ccc2C[C@H]1C(=O)Nc1ccc(-c2ccccc2)cc1 | 1.98 | – |
| CC(C)(C)NC(=O)[C@@H]1Cc2ccc(OCC(=O)NO)cc2CN1C(=O)OC(C)(C)C | 4.58 | – |
| O=C(COc1ccc2c(c1)CN1C(=O)N(c3ccccc3)C(=O)[C@@H]1C2)NO | > 50 | – |

Second part, led by results:

| IC50 [1] [µM] | SMILES | other results |
| --- | --- | --- |
| 12.2 | CC(C)(C)NC(=O)[C@@H]1Cc2ccc(OCC(=O)NO)cc2CN1 | – |
| 8.21 | O=C(COc1ccc2c(c1)CN[C@H](C(=O)Nc1ccccc1)C2)NO | – |
| 5.57 | COc1ccc(NC(=O)[C@@H]2Cc3ccc(OCC(=O)NO)cc3CN2)cc1 | – |
| 5.1 | O=C(COc1ccc2c(c1)CN[C@H](C(=O)NCc1ccccc1)C2)NO | – |
| 3.23 | O=C(COc1ccc2c(c1)CN[C@H](C(=O)Nc1ccc(F)cc1)C2)NO | – |
| 2.21 | O=C(COc1ccc2c(c1)CN[C@H](C(=O)Nc1ccc(-c3ccccc3)cc1)C2)NO | – |
| 1.06 | O=C(COc1ccc2c(c1)CN[C@H](C(=O)Nc1cccc3ccccc13)C2)NO | IC50 [2]: 170 µM; IC50 [3]: 750 µM; IC50 [4]: 980 µM |
| 3.39 | Cc1ccc(NC(=O)[C@@H]2Cc3ccc(OCC(=O)NO)cc3CN2)c(C)c1 | – |
| 3.82 | Cc1ccc(NC(=O)[C@@H]2Cc3ccc(OCC(=O)NO)cc3CN2)cc1 | – |
| 4 | Cc1ccccc1NC(=O)[C@@H]1Cc2ccc(OCC(=O)NO)cc2CN1C(=O)OC(C)(C)C | – |
| 4.13 | Cc1ccccc1NC(=O)[C@@H]1Cc2ccc(OCC(=O)NO)cc2CN1 | – |
| 3.62 | Cc1cccc(NC(=O)[C@@H]2Cc3ccc(OCC(=O)NO)cc3CN2)c1 | – |
| 4.07 | O=C(COc1ccc2c(c1)CN[C@H](C(=O)NCCc1ccccc1)C2)NO | – |
| 3.34 | O=C(COc1ccc2c(c1)CN[C@H](C(=O)Nc1ccc(F)c(Cl)c1)C2)NO | – |
| 3.2 | O=C(COc1ccc2c(c1)CN[C@H](C(=O)Nc1cccc(Cl)c1)C2)NO | – |
| 3.54 | CCCCCNC(=O)[C@@H]1Cc2ccc(OCC(=O)NO)cc2CN1 | – |
